We go through three molecules from ChEMBL document CHEMBL1146740, “New analogue of arenastatin A, a potent cytotoxic spongean depsipeptide, with anti-tumor activity” (Bioorg Med Chem Lett, 2004).

In experiment [1] the test system is Mus musculus. In words: In vivo antitumor activity (reduction of tumor volume) was determined against lewis lung carcinoma, subcutaneously in mice at a dose of 5 mg/kg. It is filed as functional. The note with it: route intravenous.
The nature of experiment [2]: In vivo antitumor activity (reduction of tumor volume) was determined over treated/control mice at a dose of 10 mg/kg. It is filed as functional.
Experiment [3] in a line: In vivo antitumor activity (reduction of tumor volume) was determined over treated/control mice at a dose of 2.5 mg/kg. It is filed as functional.
The test system of experiment [4] is Mus musculus. Briefly: In vivo antitumor activity (reduction of tumor volume) was determined against lewis lung carcinoma, subcutaneously in mice at a dose of 10 mg/kg. Format: functional. The note with it: route intravenous.
Experiment [5] has as its system Mus musculus. In words: In vivo antitumor activity (reduction of tumor volume) was determined against lewis lung carcinoma, subcutaneously in mice at a dose of 2.5 mg/kg. Format: functional. The following applies: route intravenous.
A short description of experiment [6]: In vivo antitumor activity (reduction of tumor volume) was determined over treated/control mice at a dose of 5 mg/kg. Format: functional.
The next experiment has as its system KB 3-1. In words: Inhibitory activity was evaluated for potent cytotoxic effect on KB-3-1 cells. Format: functional, cell-based. The following applies: Homo sapiens.
Experiment [7] is described as follows: In vivo antitumor activity (reduction of tumor volume) was determined over treated/control mice at a dose of 3.3 mg/kg. Format: functional.
Experiment [8] concerns Mus musculus. Briefly: In vivo antitumor activity (reduction of tumor volume) was determined against lewis lung carcinoma, subcutaneously in mice at a dose of 1.65 mg/kg. Format: functional. The note with it: route intravenous.
Experiment [9] is described as follows: In vivo antitumor activity (reduction of tumor volume) was determined over treated/control mice at a dose of 1.65 mg/kg. It is filed as functional.
The test system of experiment [10] is Mus musculus. In words: In vivo antitumor activity (reduction of tumor volume) was determined against lewis lung carcinoma, subcutaneously in mice at a dose of 3.3 mg/kg. It is filed as functional. The following applies: route intravenous.

In brackets after ≈: the same amount, converted by molar mass.

On to `COc1ccc(C[C@H]2NC(=O)/C=C/C[C@@H]([C@H](C)[C@H]3O[C@@H]3c3ccccc3)OC(=O)[C@H](C(C)(C)C)OC(=O)CCNC2=O)cc1`, for which the Tumor volume with Mus musculus [1] was 7.1 cm*3; in the experiment on Mus musculus [4], 4.9 cm*3; in the experiment with Mus musculus [5] it was 6.6 cm*3. Further, the T/C is listed as 0.71 in experiment [2], 0.96 in [3] and 1.03 in [6]. Also, 0.01 µg/mL (≈ 0.0165 µM) corresponded to half-maximal inhibition in the experiment on KB 3-1 (IC50).

As for `COc1ccc(C[C@H]2NC(=O)/C=C/C[C@@H]([C@H](C)[C@H]3O[C@@H]3c3ccccc3)OC(=O)[C@H](C(C)C)OC(=O)CCNC2=O)cc1`, the IC50 (usually the point on the concentration scale where inhibition reaches its midpoint) in the experiment on KB 3-1 worked out at 0.03 µg/mL (≈ 0.0506 µM).

For `CO[C@@]12[C@H](COC(N)=O)C3=C(C(=O)C(C)=C(N)C3=O)N1C[C@@H]1N[C@@H]12` [MITOMYCIN], the results for the T/C in [7] and in experiment [9] were 0.48 and 0.62, respectively. Also, the Tumor volume in the experiment with Mus musculus [8] is 4.2 cm*3; with Mus musculus [10], 3.3 cm*3.
